Reference: patent publication US20030166645A1, “Novel nitrofuran-containing heterocyclic compounds and uses thereof” (priority 2001, published 2003)
Values after ≈ are worked out from the molar mass of the structure shown.

Columns and labels:
Bacteroides fragilis = test: Antimicrobial agar dilution test of anaerobic bacteria (MIC); format: cell-based; settings: 48 h
[1] = tested on: Bacteroides thetaiotaomicron; format: cell-based; settings: agar dilution, anaerobic, 48 h
Bacteroides vulgatus = test: Antimicrobial agar dilution test of anaerobic bacteria (MIC); format: cell-based; settings: 48 h
P aeruginosa = test: Microdilution antimicrobial susceptibility test (MIC); format: cell-based; settings: broth microdilution, 18-24 h, MIC = 90% inhibition of growth
S aureus = test: as above; format: cell-based; settings: broth microdilution, 18-24 h, MIC = 90% inhibition of growth
H influenzae = test: as above; format: cell-based; settings: broth microdilution, 18-24 h, MIC = 90% inhibition of growth
M. catarrhalis = test: as above; format: cell-based; settings: broth microdilution, 18-24 h, MIC = 90% inhibition of growth
S cerevisiae = test: as above; format: cell-based; settings: broth microdilution, 18-24 h, MIC = 90% inhibition of growth
E. coli = test: Systemic bacterial infection model, mice infected with E. coli
E faecalis = test: Microdilution antimicrobial susceptibility test (MIC); format: cell-based; settings: broth microdilution, 18-24 h, MIC = 90% inhibition of growth
E coli = test: as above; format: cell-based; settings: broth microdilution, 18-24 h, MIC = 90% inhibition of growth
E coli (ImpA) = test: as above; format: cell-based; settings: broth microdilution, 18-24 h, MIC = 90% inhibition of growth
Procedure: Microdilution Antimicrobial Susceptibility Test Assay
Stock solutions of tested compounds were prepared in N,N-dimethylformamide (DMF) at a concentration of 5 mg/mL. Working solutions of the tested compounds were then prepared from the stock solutions, in Mueller-Hinton broth (MHB) with a starting concentration of 64 μg/mL.
Bacterial inocula were prepared from overnight culture (i.e., one fresh colony from agar plate in 5 ml MHB; H. influenzae was grown in MHB with the addition of yeast extract, haematin, and NAD), centrifuged 2×5 min/3000 rpm (for S. pneumoniae and H. influenzae, 2×10 min/3000 rpm), and dispensed in 5 ml of fresh MHB each time, such that the bacterial suspension is diluted to obtain 100 colony forming units (cfu) in a microplate well (100 μl total volume).
Microplate wells were filled with two-fold dilutions of test compound (50 Al), starting with 64 μg/ml. Wells were then filled with 50 μl of bacterial inoculum (final volume: 100 μl/well). The plates were incubated at 37° C. for 18-24 hours (S. pneumoniae was grown in a CO2-enriched atmosphere).

S pneumoniae = test: as above; format: cell-based; settings: broth microdilution, 18-24 h, CO2-enriched atmosphere, MIC = 90% inhibition of growth

| SMILES | MIC Bacteroides fragilis (Bacteroides fragilis; first B. fragilis column) [µg/mL] | MIC Bacteroides fragilis (Bacteroides fragilis; second B. fragilis column) [µg/mL] | MIC Bacteroides fragilis (Bacteroides fragilis; third B. fragilis column) [µg/mL] | MIC Bacteroides vulgatus (Bacteroides vulgatus) [µg/mL] | MIC P aeruginosa MIC2 (P aeruginosa) [µg/mL] | MIC S aureus MIC2 (S aureus) [µg/mL] | MIC H influenzae MIC4 (H influenzae) [µg/mL] | MIC M. catarrhalis MIC2 (M. catarrhalis) [µg/mL] | MIC S cerevisiae MIC7 (S cerevisiae) [µg/mL] | MIC E faecalis MIC2 (E faecalis) [µg/mL] | MIC E coli MIC2 (E coli) [µg/mL] | MIC E coli (ImpA) MIC9 (E coli (ImpA)) [µg/mL] | MIC S pneumoniae MIC6 (S pneumoniae) [µg/mL] | further results |
| --- | --- | --- | --- | --- | --- | --- | --- | --- | --- | --- | --- | --- | --- | --- |
| CC[C@H]1OC(=O)[C@H](C)[C@@H](O[C@H]2C[C@@](C)(OC)[C@@H](O)[C@H](C)O2)[C@H](C)[C@@H](O[C@@H]2O[C@H](C)C[C@H](N(C)C)[C@H]2O)[C@](C)(O)C[C@@H](C)CN(C)[C@H](C)[C@@H](O)[C@]1(C)O [Azithromycin] | 4 (≈ 5.34 µM) | 4 (≈ 5.34 µM) | 4 (≈ 5.34 µM) | 1 (≈ 1.34 µM) |  |  |  |  |  |  |  |  |  | MIC Bacteroides thetaiotaomicron [1]: 4 µg/mL (≈ 5.34 µM) |
| O=C(N[C@H](CO)[C@H](O)c1ccc([N+](=O)[O-])cc1)C(Cl)Cl [Chloramphenicol] | 4 (≈ 12.4 µM) | 4 (≈ 12.4 µM) | 4 (≈ 12.4 µM) | < 0.125 |  |  |  |  |  |  |  |  |  | MIC Bacteroides thetaiotaomicron [1]: 4 µg/mL (≈ 12.4 µM) |
| CCC[C@@H]1C[C@@H](C(=O)N[C@@H]([C@H]2O[C@H](SC)[C@H](O)[C@@H](O)[C@H]2O)[C@H](C)Cl)N(C)C1 [Clindamycin] | 1 (≈ 2.35 µM) | 1 (≈ 2.35 µM) | 1 (≈ 2.35 µM) | < 0.125 |  |  |  |  |  |  |  |  |  |  |
| Cn1c(-c2ccc([N+](=O)[O-])o2)nnc1S(=O)(=O)O [Compound 107, 5-[2-(5-Nitro)furyl]-4-methyl-4H-1,2,4-triazole-3-sulfonic Acid] |  |  |  |  |  |  |  |  |  |  |  |  |  | MIC (P aeruginosa; read-out: MIC P aeruginosa MIC2): > 64 µg/mL; MIC (S aureus; read-out: MIC S aureus MIC2): 16 µg/mL (≈ 58.3 µM); MIC (H influenzae; read-out: MIC H influenzae MIC4): 16 µg/mL (≈ 58.3 µM); MIC (M. catarrhalis; Moraxella catarrhalis, read-out: MIC M. catarrhalis MIC2): 1 µg/mL (≈ 3.65 µM); MIC (S cerevisiae; read-out: MIC S cerevisiae MIC7): 64 µg/mL (≈ 233 µM); Survival (%) (E. coli; Study #4, 50 mg/kg IP QD × 3, 6 days observation): 70%; Survival (%) (E. coli; Study #4, 75 mg/kg IP QD × 3, 6 days observation): 90%; MIC (E faecalis; read-out: MIC E faecalis MIC2): > 64 µg/mL; MIC (E coli; read-out: MIC E coli MIC2): 2 µg/mL (≈ 7.29 µM); MIC (E coli (ImpA); read-out: MIC E coli (ImpA) MIC9): 4 µg/mL (≈ 14.6 µM); MIC (S pneumoniae; read-out: MIC S pneumoniae MIC6): 32 µg/mL (≈ 117 µM) |
| O=[N+]([O-])c1ccc(-c2nnc(S)n2Cc2ccco2)o1 [Compound 125] |  |  |  |  | >64 | 8 (≈ 27.4 µM) | 4 (≈ 13.7 µM) | 0.5 (≈ 1.71 µM) | >64 | 64 (≈ 219 µM) | >64 | 4 (≈ 13.7 µM) | 8 (≈ 27.4 µM) |  |
| O=[N+]([O-])c1ccc(-c2nnc(S(=O)(=O)O)n2-c2ccccc2)o1 [Compound 127] |  |  |  |  | >64 | >64 | >64 | 32 (≈ 95.2 µM) | >64 | >64 | >64 | 64 (≈ 190 µM) | >64 |  |
| O=[N+]([O-])c1ccc(-c2nnc(S(=O)(=O)O)n2Cc2ccccc2)o1 [Compound 128] |  |  |  |  | >64 | >64 | 64 (≈ 183 µM) | 16 (≈ 45.7 µM) | >64 | >64 | >64 | >64 | 64 (≈ 183 µM) |  |
